Results: publication PMC12881681 (Molecular Pharmacology, 2025)
Values joined by “and” are separate entries in the source; they are usually repeats but may differ in a detail not shown here. Identical values can stand only once. Like-named read-outs stand apart in the source and are kept apart here.

Experiments:
[1] = target: T1, human liver cytosolic AOX1 (Homo sapiens, UniProt Q06278); assay type: biochemical; set-up: Enzymatic reaction was initiated by adding human liver cytosol (100 μg); tissue Corning, Inc. (Gentest brand) 452115; host or cells: human liver cytosol, pool of 150 donors; settings: 5 mM agent, 10 min; erlotinib 1.5 μM, analogs 2 μM
T1 sequence (Q06278 1-1338): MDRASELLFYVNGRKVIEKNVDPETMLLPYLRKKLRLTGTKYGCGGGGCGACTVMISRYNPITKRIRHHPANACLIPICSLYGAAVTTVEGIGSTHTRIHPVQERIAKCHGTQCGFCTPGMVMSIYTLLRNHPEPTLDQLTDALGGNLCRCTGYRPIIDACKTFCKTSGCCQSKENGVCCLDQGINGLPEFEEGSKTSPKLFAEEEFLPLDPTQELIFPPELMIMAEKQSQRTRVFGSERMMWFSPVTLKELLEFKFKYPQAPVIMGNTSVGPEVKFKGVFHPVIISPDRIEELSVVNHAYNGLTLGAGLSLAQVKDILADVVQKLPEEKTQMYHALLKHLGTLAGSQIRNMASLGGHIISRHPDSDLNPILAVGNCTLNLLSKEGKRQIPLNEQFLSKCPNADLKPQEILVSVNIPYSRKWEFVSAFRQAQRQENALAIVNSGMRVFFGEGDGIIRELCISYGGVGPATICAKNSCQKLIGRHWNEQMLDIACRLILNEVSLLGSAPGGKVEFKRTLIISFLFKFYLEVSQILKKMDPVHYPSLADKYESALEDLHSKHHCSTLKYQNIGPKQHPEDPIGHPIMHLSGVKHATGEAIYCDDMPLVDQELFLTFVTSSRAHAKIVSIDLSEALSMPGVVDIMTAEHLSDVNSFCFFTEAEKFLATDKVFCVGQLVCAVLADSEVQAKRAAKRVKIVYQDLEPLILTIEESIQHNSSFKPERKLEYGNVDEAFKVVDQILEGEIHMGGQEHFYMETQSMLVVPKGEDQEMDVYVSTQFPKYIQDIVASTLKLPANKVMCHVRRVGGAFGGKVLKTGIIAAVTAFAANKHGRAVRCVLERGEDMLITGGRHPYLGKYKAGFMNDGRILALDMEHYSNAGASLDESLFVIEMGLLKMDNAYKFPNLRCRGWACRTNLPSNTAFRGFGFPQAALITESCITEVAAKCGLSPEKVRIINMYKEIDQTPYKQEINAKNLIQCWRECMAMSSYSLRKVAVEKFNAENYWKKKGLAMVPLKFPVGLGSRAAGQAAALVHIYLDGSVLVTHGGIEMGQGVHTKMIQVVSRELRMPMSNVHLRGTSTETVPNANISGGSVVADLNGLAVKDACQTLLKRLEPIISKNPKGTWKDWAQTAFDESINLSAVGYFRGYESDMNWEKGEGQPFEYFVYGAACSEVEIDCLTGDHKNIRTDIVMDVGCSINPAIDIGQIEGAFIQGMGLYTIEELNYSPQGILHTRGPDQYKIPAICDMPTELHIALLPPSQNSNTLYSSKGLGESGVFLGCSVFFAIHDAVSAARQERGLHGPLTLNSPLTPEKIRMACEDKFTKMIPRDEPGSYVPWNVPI
Protocol: Potassium ferricyanide (5 mM; oxidizing agent), sodium dithionite (5 mM; reducing agent), or potassium phosphate buffer (vehicle for oxidizing/reducing agent) was preincubated with human liver cytosol (200 μg protein) in a total volume of 100 μL at 37 °C for 10 minutes. […] After a 0 or 6-minute preincubation duration, an aliquot (10 μL) of the secondary incubation mixture was transferred to a prewarmed tertiary incubation mixture (total volume of 200 μL) containing potassium phosphate buffer and carbazeran (15 μM), which yielded a 20-fold dilution of the secondary incubation mixture. The tertiary incubation mixture was incubated for 5 minutes at 37 °C before the enzymatic reaction was terminated with 200 μL of ice-cold acetonitrile containing carbazeran-d4 (2.5 nM final concentration; internal standard for 4-oxo-carbazeran). The residual AOX1 enzyme activity was determined by the carbazeran 4-oxidation assay.

[2] = cancer patients, cited from earlier work; for Cmax: 150 mg/day erlotinib
AOX1 = settings: zoniporide as AOX substrate; cited from earlier work
[3] = set-up: method as in PMID 26330331; settings: mice, oral dosing; cited from earlier work
human recombinant AOX1 = target: T2, human recombinant AOX1 (Homo sapiens, UniProt Q06278); assay: Time-dependent inactivation of carbazeran 4-oxidation by human recombinant AOX1; assay type: biochemical; settings: each 10 μM (raloxifene 0.02 μM), 30-minute preincubation, vs vehicle control without preincubation
T2 construct: purchased Cypex Ltd CYP150
T2 sequence (Q06278 1-1338): T1 sequence (Q06278 1-1338)
Protocol: (§1) Carbazeran 4-oxidation and O^6-benzylguanine 8-oxidation were deployed as AOX1-selective catalytic markers.[27] The assay conditions (amount of cytosolic protein, incubation time, and substrate concentration) for carbazeran 4-oxidation catalyzed by human recombinant AOX1 and human/rat/mouse liver cytosols were optimized previously.[7]^,[25]
(§2) Enzymatic reaction was initiated by adding human liver cytosol (100 μg). After the specified preincubation duration, an aliquot (10 μL) of the preincubation mixture was transferred to 190 μL of a prewarmed (for 3 minutes at 37 °C) secondary incubation mixture (total volume of 200 μL) containing potassium phosphate buffer and carbazeran (15 μM) or O^6-benzylguanine (150 μM), which yielded a 20-fold dilution of the primary incubation mixture. The secondary incubation mixture was incubated for 5 minutes at 37 °C before the enzymatic reaction was terminated with 200 μL of ice-cold acetonitrile containing carbazeran-d4 (2.5 nM final concentration; internal standard for 4-oxo-carbazeran) or tolbutamide (25 nM final concentration; internal standard for 8-oxo-O^6-benzylguanine). Each sample was immediately mixed by vortex, placed on ice, centrifuged at 16,000g for 15 minutes at 4 °C and stored at –30 °C until ultra-high performance liquid chromatography–tandem mass spectrometry (UPLC-MS/MS) analysis. For enzyme inactivation assays involving rat and mouse liver cytosol and recombinant AOX1 assays, the experimental conditions were similar to those of human liver cytosol, except that the amount of cytosolic protein was 200 μg (rat) and 150 μg (mouse), respectively, and the incubation time of the secondary incubation mixture was 60 minutes. For the recombinant AOX1 enzyme assay, the amount of enzyme was 100 μg, the incubation time of the secondary incubation mixture was 15 minutes, and the total volume of the primary and secondary incubation mixtures was reduced to 100 μL.
(§3) An aliquot (10 μL) of the primary incubation mixture was transferred to a secondary incubation mixture containing carbazeran (15 μM) and incubated for (A) 180, (B) 5, or (C, D) 120 minutes.

AOX1 (rat liver cytosol) = assay: Inactivation of carbazeran 4-oxidation by rat liver cytosol; assay type: biochemical; settings: 10 μM (raloxifene 0.02 μM), 30-minute preincubation
Protocol: as §1, §2, §3

C#Cc1cccc(Nc2nc(C)nc3cc(OCCOC)c(OCCOC)cc23)c1 [2-Methylerlotinib, 2-methylerlotinib]
effect of preincubating cytosol with potassium ferricyanide or sodium dithionite on AOX1 inactivation [1]: neither sodium dithionite nor potassium ferricyanide affected

C#Cc1cccc(Nc2ncnc3cc(OCCOC)c(OCCOC)cc23)c1 [Erlotinib]
Cmax ([2]; day 28): 5.39 µM
Cmax ([2]; erlotinib in plasma, day 24 to day 28): 4.41 to 5.39 µM
Ki (AOX1): 720 nM
effect of preincubating cytosol with potassium ferricyanide or sodium dithionite on AOX1 inactivation [1]: neither sodium dithionite nor potassium ferricyanide affected
elimination half-life [3]: 42 min

C#Cc1cccc(Nc2ncnc3cc(OCCOC)c(OCCO)cc23)c1 [O-Desmethylerlotinib, O-desmethylerlotinib]
decrease in carbazeran 4-oxidation (human recombinant AOX1): 91%
decrease in carbazeran 4-oxidation (AOX1 (rat liver cytosol)): 92%–97%

C#Cc1cccc(Nc2ncnc3cc(OCCO)c(OCCO)cc23)c1 [O-Didesmethylerlotinib, O-didesmethylerlotinib]
decrease in carbazeran 4-oxidation (human recombinant AOX1): 94%
C24h ([2]; 150 mg/day erlotinib for 1–2 months): 0.86–4.2 ng/mL and 2.35–11.49 nM
decrease in carbazeran 4-oxidation (AOX1 (rat liver cytosol)): 92%–97%
